In US10669271B2, “Heterocyclic compounds as immunomodulators” (Incyte Corporation, priority 2018, dated 2020):

Key:
PD-L1 = PD-L1 (Homo sapiens (Human), UniProt Q9NZQ7); assay: PD-L1 whole blood internalization assay; assay type: cell-based; conditions: 1 ng/ml human interferon γ, PD-L1 expression on CD14+ cells, read-out: Whole Blood (24 HR) IC50
Summary of the method: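 Normal human whole blood was exposed to a range of test compound concentrations together with 1 ng/ml human interferon γ, then stained for PD-L1 and CD14 for 30 minutes at room temperature in the dark. After red cell lysis/fixation and centrifugation, CD14+ cells were analyzed by flow cytometry for PD-L1 MFI, and IC50 values came from percent inhibition versus log concentration fits.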

[1] = tested on: U2OS/PD-L1 cells and Jurkat-PD-1-SHP cells; assay: Src homology region 2 domain-containing phosphatase (SHP) assay; assay type: cell-based; conditions: Homo sapiens; U2OS/PD-L1 cells with Jurkat-PD-1-SHP cells, 2 hours
Summary of the method: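 U2OS/PD-L1 cells (5000/well) in RPMI1640 with 1% FBS were treated with serially diluted compounds (0.05% DMSO final) and co-incubated with 5,000 Jurkat-PD-1-SHP cells for 2 h at 37 °C. PathHunter enzyme-fragment chemiluminescence was read after 1 h at room temperature. IC50 came from percent-of-control activity versus log concentration.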

[2] = tested on: PD-L1 aAPC/CHO-K1 cells and Jurkat-PD-1-NFAT effector cells; assay: Nuclear factor of activated T-cells (NFAT) assay; assay type: cell-based; conditions: Cricetulus griseus; PD-L1 aAPC/CHO-K1 cells with Jurkat-PD-1-NFAT effector cells, 24 hours
Summary of the method: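 PD-L1 aAPC/CHO-K1 cells co-cultured with Jurkat-PD-1-NFAT effector cells in RPMI 1640 with 1% FBS, compound top concentration 2 μM, 0.4% DMSO, 24 h at 37 °C. Bio-Glo luminescence read; fold induction normalized to DMSO wells, maximum induction relative to control compound, EC50 from percent control activity versus log concentration.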

PD-1/PD-L1 = PD-1/PD-L1 (Homo sapiens (Human), UniProt Q9NZQ7); assay: Homogeneous Time-Resolved Fluorescence (HTRF) PD-1/PD-L1 binding assay; conditions: recombinant human PD-1 and PD-L1, 25° C., pH 7.4
Summary of the method: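 His-tagged PD-L1 (19-238, 10 nM) and Fc-tagged PD-1 (25-167, 3 nM) preincubated 40 min with inhibitors in PBS pH 7.4, 0.05% Tween-20, 0.1% BSA, 1% DMSO, 25 °C. Eu anti-IgG (1 nM) and anti-His-APC (20 nM) added, 60 min at 25 °C; 665/620 nm ratio fitted for IC50.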

PD-L1, sequence (Q9NZQ7 19-290): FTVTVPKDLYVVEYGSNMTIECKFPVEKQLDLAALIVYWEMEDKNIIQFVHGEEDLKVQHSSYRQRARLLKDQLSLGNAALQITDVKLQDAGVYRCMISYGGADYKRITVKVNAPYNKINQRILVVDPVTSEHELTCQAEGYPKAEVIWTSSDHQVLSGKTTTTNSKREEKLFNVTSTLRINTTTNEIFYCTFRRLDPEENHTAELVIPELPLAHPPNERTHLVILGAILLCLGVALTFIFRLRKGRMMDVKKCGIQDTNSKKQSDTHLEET
PD-1/PD-L1, sequence (Q9NZQ7 19-238): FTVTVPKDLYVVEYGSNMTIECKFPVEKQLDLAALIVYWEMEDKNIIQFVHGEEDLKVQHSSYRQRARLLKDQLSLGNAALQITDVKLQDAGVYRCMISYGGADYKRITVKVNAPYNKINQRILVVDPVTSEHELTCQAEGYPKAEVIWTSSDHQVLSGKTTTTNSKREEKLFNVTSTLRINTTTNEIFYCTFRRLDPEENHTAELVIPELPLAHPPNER

IC50 (PD-L1) | IC50 [1] | IC50 (PD-1/PD-L1) | SMILES | EC50 [2]
10 to 100 nM | ≤ 10 nM | ≤ 10 nM | Cc1nc(Nc2cccc(-c3cccc(-c4nc5cc(CN6CC[C@@H](C(=O)O)C6)cc(C#N)c5o4)c3C)c2C)c2ncc(CN3CC[C@@H](O)C3)cc2n1 [Example 6, (R)-1-((7-cyano-2-(3′-(7-(((R)-3-hydroxypyrrolidin-1-yl)methyl)-2-methylpyrido[3,2-d]pyrimidin-4-ylamino)-2,2′-dimethylbiphenyl-3-yl)benzo[d]oxazol-5-yl)methyl)pyrrolidine-3-carboxylic Acid] | 10 to 100 nM
10 to 100 nM | ≤ 10 nM | ≤ 10 nM | Cc1nc(Nc2cccc(-c3cccc(-c4nc5cc(CN6CCC(C(=O)O)CC6)cc(C#N)c5o4)c3C)c2C)c2ncc(CN3CC[C@@H](O)C3)cc2n1 [Example 1, (R)-1-((7-cyano-2-(3′-(7-((3-hydroxypyrrolidin-1-yl)methyl)-2-methylpyrido[3,2-d]pyrimidin-4-ylamino)-2,2′-dimethylbiphenyl-3-yl)benzo[d]oxazol-5-yl)methyl)piperidine-4-carboxylic Acid] | 10 to 100 nM
10 to 100 nM | ≤ 10 nM | ≤ 10 nM | Cc1nc(Nc2cccc(-c3cccc(-c4nc5cc(CN6CC[C@@](C)(C(=O)O)C6)cc(C#N)c5o4)c3C)c2C)c2ncc(CN3CC[C@@H](O)C3)cc2n1 [Example 11, (R)-1-((7-cyano-2-(3′-(7-(((R)-3-hydroxypyrrolidin-1-yl)methyl)-2-methylpyrido[3,2-d]pyrimidin-4-ylamino)-2,2′-dimethylbiphenyl-3-yl)benzo[d]oxazol-5-yl)methyl)-3-methylpyrrolidine-3-carboxylic Acid] | 10 to 100 nM
10 to 100 nM | ≤ 10 nM | ≤ 10 nM | Cc1c(Nc2nc(N)nc3cc(CN4CC[C@@H](O)C4)cnc23)cccc1-c1cccc(-c2nc3cc(CN4CCC(C(=O)O)CC4)cc(C#N)c3o2)c1C [Example 29, (R)-1-((2-(3′-(2-amino-7-((3-hydroxypyrrolidin-1-yl)methyl)pyrido[3,2-d]pyrimidin-4-ylamino)-2,2′-dimethylbiphenyl-3-yl)-7-cyanobenzo[d]oxazol-5-yl)methyl)piperidine-4-carboxylic Acid] | 10 to 100 nM
10 to 100 nM | ≤ 10 nM | ≤ 10 nM | Cc1nc(Nc2cccc(-c3cccc(-c4nc5cc(CN6CC[C@@](C)(C(=O)O)C6)cc(C#N)c5o4)c3C)c2C)c2ncc(CN3CC[C@@](C)(O)C3)cc2n1 [Example 12, (R)-1-((7-cyano-2-(3′-(7-(((R)-3-hydroxy-3-methylpyrrolidin-1-yl)methyl)-2-methylpyrido[3,2-d]pyrimidin-4-ylamino)-2,2′-dimethylbiphenyl-3-yl)benzo[d]oxazol-5-yl)methyl)-3-methylpyrrolidine-3-carboxylic Acid] | 10 to 100 nM
10 to 100 nM | ≤ 10 nM | ≤ 10 nM | Cc1nc(Nc2cccc(-c3cccc(-c4nc5cc(CN6CCC(C(=O)O)CC6)cc(C#N)c5o4)c3C)c2C)c2ncc(CN3CC[C@@](C)(O)C3)cc2n1 [Example 2, (R)-1-((7-cyano-2-(3′-(7-((3-hydroxy-3-methylpyrrolidin-1-yl)methyl)-2-methylpyrido[3,2-d]pyrimidin-4-ylamino)-2,2′-dimethylbiphenyl-3-yl)benzo[d]oxazol-5-yl)methyl)piperidine-4-carboxylic Acid] | 10 to 100 nM
10 to 100 nM | ≤ 10 nM | ≤ 10 nM | Cc1c(Nc2nc(C(F)F)nc3cc(CN4CC[C@@H](O)C4)cnc23)cccc1-c1cccc(-c2nc3cc(CN4CCC(C(=O)O)CC4)cc(C#N)c3o2)c1C [Example 16, (R)-1-((7-cyano-2-(3′-(2-(difluoromethyl)-7-((3-hydroxypyrrolidin-1-yl)methyl)pyrido[3,2-d]pyrimidin-4-ylamino)-2,2′-dimethylbiphenyl-3-yl)benzo[d]oxazol-5-yl)methyl)piperidine-4-carboxylic Acid] | ≤ 10 nM
